Data on 28 compounds can be found in patent US7977371B2, “Pyrrole derivative having ureido group and aminocarbonyl group as substituents” (Santen Pharmaceutical Co., Ltd., priority 2007, dated 2011).

In test [1] the test system is choroidal neovascularization induced by krypton laser irradiation. Briefly: Evaluation test for inhibitory effect on choroidal neovascularization (rat model induced by krypton laser irradiation). The test is classed as in vivo, Brown Norway rat. Particulars: po, 168 h, 30 mg/kg/day orally once a day for 7 days (day 0 to day 6), fluorescein fundus angiography on day 7, versus vehicle administration group, average of 5 to 8 eyes of 3 to 4 rats, read-out: Ratio of incidence of neovascularization (% of control). From the text: 2. Evaluation Test for Inhibitory Effect on Choroidal Neovascularization
As one of the methods widely used for evaluating an inhibitory effect on choroidal neovascularization, a rat model of choroidal neovascularization induced by krypton laser irradiation has been reported in Graefe's Arch. Cli. Exp. Ophthalmol., 235, 313-319 (1997). According to the method described in this document, a ratio of incidence of choroidal neovascularization of a present compound administration group to that of a vehicle administration group was calculated using the rat model of choroidal neovascularization, and an inhibitory effect of the present compound on choroidal neovascularization was evaluated using the calculated value as an index. Specific test methods will be described below.
(Preparation of Administration Liquid of Test Compound)
A test compound was suspended in a 1% aqueous methyl cellulose solution, whereby a 6 mg/mL test compound suspension was prepared.
(Preparation of Rat Model of Choroidal Neovascularization Induced by Krypton Laser)
1) To a Brown Norway rat (male, 7 to 8 weeks of age), a mixed solution of a 5% ketamine hydrochloride injection solution and a 2% xylazine hydrochloride injection solution (7:1) was intramuscularly administered at a dose of 1 mL/kg to effect systemic anesthesia.
2) After a 0.5% tropicamide-0.5% phenylephrine hydrochloride eye drop was instilled into the eyes to cause mydriasis, photocoagulation was performed using a krypton laser photocoagulation apparatus (MC-7000, manufactured by NIDEK Co., Ltd.). The krypton laser irradiation was performed at eight spots per eye sparsely by focusing on the retinal deep layer avoiding large retinal vessels in a posterior section of ocular fundus. The photocoagulation conditions were set such that the spot size was 100 μm, the output was 100 mW and the coagulation time was 0.1 sec.
3) After the photocoagulation, the ocular fundus photography was performed (PRO III, manufactured by Kowa Company, Ltd.) to confirm the photocoagulation (krypton laser irradiation) sites.
(Administration Method of Test Compound)
1) The test compound suspension (30 mg/kg/day) was orally administered once a day for 7 consecutive days from the day of krypton laser irradiation (day 0) until day 6.
2) A 1% aqueous methyl cellulose solution was administered in the same manner as in 1) in place of the test compound suspension, and the obtained result was designated as the vehicle administration group.
1). On day 7 after the photocoagulation, 0.1 mL of a 10% aqueous fluorescein solution was injected into the tail vein, and fluorescein fundus angiography was performed (PRO III, manufactured by Kowa Company, Ltd.).
2) In the fluorescein fundus angiography, a spot where fluorescence leakage was not observed was determined to be negative and a spot where fluorescence leakage was observed was determined to be positive. With respect to photocoagulation sites where a little fluorescence leakage was observed, in the case where there were two such photocoagulation sites, it was determined to be positive.
(Calculation Formula of Incidence of Neovascularization)
An incidence (%) of neovascularization of each administration group and a ratio of incidence of neovascularization of the test compound administration group to that of the vehicle administration group were calculated from the following formulae, respectively. Incidence of Neovascularization of Each Administration Group (%)=[(Number of Positive Photocoagulation. Sites)/(Number of Total Photocoagulation Sites)]×100 Ratio of Incidence of Neovascularization of Test Compound Administration Group to that of Vehicle Administration Group (% of Control)=[(Incidence of Neovascularization of Test Compound Administration Group)/(Incidence of Neovascularization of Vehicle Administration Group)]×100 (Evaluation Results)

Test [2] concerns TNF-α-induced IL-6 production in normal human skin fibroblast-derived CCD-1059Sk cells. Kind of test: Test for measurement of inhibitory activity against TNF-α-induced IL-6 production. Particulars: Homo sapiens, CCD-1059Sk, 16 h, test compound at 10 μM, TNF-α stimulation 16 hours, inhibition ratio of 100% or more is indicated as 100%. The test is classed as cell-based. The protocol:
1. Test for Measurement of Inhibitory Activity Against IL-6 Production
An inhibitory effect on TNF-α-induced IL-6 production in normal human skin fibroblast-derived CCD-1059Sk cells (ATCC No. CRL-2072) was evaluated. The amount of IL-6 was determined by the homogeneous time-resolved fluorescence method using HTRF™ Human IL-6 kit (Cat. No. 62IL6PEB, manufactured by CIS-Bio international, Inc.). Specific test methods will be described below.
(Preparation of Test Compound Solution)
After a test compound was dissolved in dimethyl sulfoxide, the resulting solution was diluted with D-MEM medium containing 0.1% heat-inactivated fetal bovine serum, 0.1 mM MEM non-essential amino acid solution, 100 U/mL penicillin and 100 μg/mL streptomycin (hereinafter referred to as “medium”), whereby a 40 μM test compound solution was prepared.
(Test Method and Measurement Method)
1) CCD-1059Sk cells prepared at a density of 3×10^5 cells/mL were inoculated in a 384-well plate in an amount of 10 μL per well such that the cell density was 3×10^3 cells/well.
2). After the plate was incubated at 37° C. for several hours in a CO2 incubator, 5 μL of the test compound was added to each well.
3) After the plate was incubated at 37° C. for 1 hour in a CO2 incubator, 5 μL of a 40 ng/mL TNF-α solution was added to each well.
4) After the plate was incubated at 37° C. for 16 hours in a CO2 incubator, 10 μL of a cryptate-labeled anti-IL-6 antibody and an XL665-labeled anti-IL-6 antibody containing potassium fluoride was added to each well.
5) After the plate was incubated at room temperature for several hours, a fluorescence intensity ratio (665 nm/620 nm) was determined for each well using a multimode plate reader Analyse™ HT (manufactured by Molecular Device Corporation) and Criterion Host software version 2.00 (manufactured by Molecular Device Corporation), and then, the amount of IL-6 was calculated.
6) The same procedures as in the above 1) to 5) were performed except that 0.4% dimethyl sulfoxide was added in place of the test compound, and the obtained result was designated as the control.
7) The same procedures as in the above 1) to 5) were performed except that 0.4% dimethyl sulfoxide and the medium were added in place of the test compound and the TNF-α solution, respectively, and the obtained result was designated as the background.
(Calculation Formula of IL-6 Production Inhibition Ratio)
An IL-6 production inhibition ratio (%) was calculated from the following formula. IL-6 Production Inhibition Ratio (%)=100×{1−[(Amount of IL-6 for Test Compound)−(Amount of IL-6 for Background)/(Amount of IL-6 for Control)−(Amount of IL-6 for Background)]} (Evaluation Results)

Structures can show the parent of a compound that is named as a salt.

For `NC(=O)Nc1[nH]c(-c2ccc(F)cc2)cc1C(N)=O` [Compound 1-8, 2-Aminocarbonylamino-5-(4-fluorophenyl) pyrrole-3-carboxamide], in test [1], the response vs control in vivo at 30 mg/kg was 31%. In addition, the inhibition (commonly the drop in the measured response relative to a control, in per cent) at 10 µM in test [2] turned out to be 93%.
On to `COc1ccccc1-c1cc(C(N)=O)c(NC(N)=O)[nH]1` [Compound 1-9, 2-Aminocarbonylamino-5-(2-methoxyphenyl) pyrrole-3-carboxamide], for which the response vs control in vivo at 30 mg/kg in test [1] is 40%. The inhibition at 10 µM in test [2] is 100%.
The matching figures for `NC(=O)Nc1[nH]c(-c2cccc(Cl)c2)cc1C(N)=O` [Compound 1-25, 2-Aminocarbonylamino-5-(3-chlorophenyl) pyrrole-3-carboxamide]: 52% and 99%.
The like results for `CCCOc1ccccc1-c1cc(C(N)=O)c(NC(N)=O)[nH]1` [Compound 4-4, 2-Aminocarbonylamino-5-(2-propyloxyphenyl) pyrrole-3-carboxamide] were, in that order, 71% and 90%.
With `CCCOc1ccc(F)cc1-c1cc(C(N)=O)c(NC(N)=O)[nH]1` [Compound 4-34, 2-Aminocarbonylamino-5-(5-fluoro-2-propyloxyphenyl) pyrrole-3-carboxamide], in test [1], the response vs control in vivo at 30 mg/kg turned out to be 75%. In addition, the inhibition at 10 µM in test [2] was found to be 100%.
Regarding `CCCOc1ccc(Cl)cc1-c1cc(C(N)=O)c(NC(N)=O)[nH]1` [Compound 4-37, 2-Aminocarbonylamino-5-(5-chloro-2-propyloxyphenyl)pyrrole-3-carboxamide], the response vs control in vivo at 30 mg/kg in test [1] turned out to be 69%. Also, the inhibition at 10 µM in test [2] came out at 97%.
Consider `N#CCOc1ccc(Cl)cc1-c1cc(C(N)=O)c(NC(N)=O)[nH]1` [Compound 4-43, 2-Aminocarbonylamino-5-(5-chloro-2-cyanomethyloxyphenyl)pyrrole-3-carboxamide], for which the response vs control in vivo at 30 mg/kg in test [1] was 57%. Also, the inhibition at 10 µM in test [2] came to 99%.
As for `NC(=O)Nc1[nH]c(-c2ccccc2OCCN2CCOCC2)cc1C(N)=O` [Compound 8-3], in test [2], the inhibition at 10 µM was 95%.
Same read-out and setting: the same measure for `NC(=O)Nc1[nH]c(-c2ccccc2OCCN2CCCC2)cc1C(N)=O` [Compound 8-4]: 99%; for `CC1CCN(CCOc2ccccc2-c2cc(C(N)=O)c(NC(N)=O)[nH]2)CC1` [Compound 8-10]: 98%.
Same read-out and setting: the same measure for `CN(CCO)CCOc1ccccc1-c1cc(C(N)=O)c(NC(N)=O)[nH]1` [Compound 8-11]: 96%.
Still for that read-out and setting: the same measure for `NC(=O)Nc1[nH]c(-c2cc(F)ccc2OCCN2CCCC2)cc1C(N)=O` [Compound 8-12]: 100%.
On to `CC1CCN(CCOc2ccc(F)cc2-c2cc(C(N)=O)c(NC(N)=O)[nH]2)CC1` [Compound 8-13], for which the inhibition at 10 µM in test [2] was found to be 100%.
The same measure, in the same setting: the value for `NC(=O)Nc1[nH]c(-c2cc(Cl)ccc2OCCN2CCCCC2)cc1C(N)=O` [Compound 8-14] was 100%; that for `CN1CCN(CCOc2ccc(Cl)cc2-c2cc(C(N)=O)c(NC(N)=O)[nH]2)CC1` [Compound 8-15] was 98%; that for `NC(=O)Nc1[nH]c(-c2cc(Cl)ccc2OCCN2CCC(CCO)CC2)cc1C(N)=O` [Compound 8-16] was 100%.
Same read-out and setting: the same measure for `CN(CCO)CCOc1ccc(F)cc1-c1cc(C(N)=O)c(NC(N)=O)[nH]1` [Compound 8-17]: 100%; for `CSCCOc1ccc(F)cc1-c1cc(C(N)=O)c(NC(N)=O)[nH]1` [Compound 8-18]: 100%; for `CN(CCOc1ccc(F)cc1-c1cc(C(N)=O)c(NC(N)=O)[nH]1)C1CCCCC1` [Compound 8-22]: 98%.
In the case of `C=Cc1ccc(-c2cc(C(N)=O)c(NC(N)=O)[nH]2)cc1` [Compound 9-1, 2-Aminocarbonylamino-5-(4-vinylphenyl)pyrrole-3-carboxamide], the inhibition at 10 µM in test [2] was found to be 100%.
On the same count and under the same terms, the same measure for `NC(=O)Nc1[nH]c(-c2ccoc2)cc1C(N)=O` [Compound 9-2]: 87%; for `NC(=O)Nc1[nH]c(-c2cccc(C#CCO)c2)cc1C(N)=O` [Compound 10-3]: 100%; for `C#Cc1cccc(-c2cc(C(N)=O)c(NC(N)=O)[nH]2)c1` [Compound 11-1, 2-Aminocarbonylamino-5-(3-ethynylphenyl)pyrrole-3-carboxamide]: 100%.
Turning to `CSCc1cccc(-c2cc(C(N)=O)c(NC(N)=O)[nH]2)c1` [Compound 15-1, 2-Aminocarbonylamino-5-(3-methylthiomethylphenyl)pyrrole-3-carboxamide], in test [2], the inhibition at 10 µM was determined as 98%.
For the compound `NC(=O)Nc1[nH]c(-c2cccc(Cl)c2)c(C=O)c1C(N)=O` [Compound 17-1, 2-Aminocarbonylamino-5-(3-chlorophenyl)-4-formylpyrrole-3-carboxamide], the inhibition at 10 µM in test [2] is 98%.
For the compound `NC(=O)Nc1[nH]c(-c2cccc(Cl)c2)c(CO)c1C(N)=O` [Compound 18-1, 2-Aminocarbonylamino-5-(3-chlorophenyl)-4-(hydroxymethyl)pyrrole-3-carboxamide], the inhibition at 10 µM in test [2] worked out at 90%.
Turning to `CNCc1c(-c2cccc(Cl)c2)[nH]c(NC(N)=O)c1C(N)=O` [Compound 19-1, 2-Aminocarbonylamino-5-(3-chlorophenyl)-4-(methylaminomethyl)pyrrole-3-carboxamide], the inhibition at 10 µM in test [2] came out at 97%.
On the same count and under the same terms, the value for `CNCCOc1ccccc1-c1cc(C(N)=O)c(NC(N)=O)[nH]1` [Compound 20-1, 2-Aminocarbonylamino-5-[2-(2-methylaminoethyloxy)phenyl]pyrrole-3-carboxamide hydrochloride] was 95%.
